In patent US20250339542A1, “CONVERSION OF A BIOLOGICALLY SILENT MIRNA BINDING SMALL MOLECULE TO AN MIRNA DEGRADER” (University of Florida Research Foundation, Incorporated, priority 2020, published 2025):
“And” between values parts separate entries of the source, which are not always exact repeats. Identical values can stand only once. “Also recorded” adds a separate entry of the source. Values belong to the compound of their own block, whether it stands above or below them.

Assays:
base paired control RNA = assay: MST binding to base paired control RNA (A bulge mutated to AU pair); conditions: microscale thermophoresis
Protocol: (§1) Microscale thermophoresis study of binding. Binding constants were measured by MST using premium capillaries (Nanotemper) using serial dilations of compound from 50 μM to 1 nM in 1:2 dilutions. RNA-Cy5-155-A (20 nM) or Cy5-155-AU (20 nM), Cy5-155-C(20 nM), and Cy5-155-GC (20 nM) were annealed in 2×DNA buffer by heating at 70° C. with cooling to room temperature on the bench. Then the 2× compound and 2× RNA solutions were mixed together in a 1:1 ratio and allowed to equilibrate at room temperature for 10 min. Then, the capillaries were loaded and run on a […] under previously described conditions.^14 MST power was set to 40% and the LED power was set to 3%.

pre-miR-155 [1] = assay: RT-qPCR of pre-miR-155 levels in MDA-MB-231 cells; type: cell-based, human; conditions: MDA-MB-231 cells
Protocol: (§2) Tissue Culture. MDA-MB-231 cells were obtained from ATCC (HTB-26) and cultured in RPMI medium with […] & 25 mM HEPES (Corning) supplemented with 10% FBS (sigma). MCF-10a cells were obtained from ATCC(CRL-10317) and cultured in DMEM/F12 50/50 with glutamine and 15 mM HEPES(Corning) containing 20% FBS(Sigma), 1×Antibiotic-Antimycotic(Corning), 20 ng/mL of human epidermal growth factor(Pepro Tech Inc.), 100 μg/mL of insulin and […] of hydrocortisone (Pfizer &Bauer). HUVECs were cultured in EGM (Lonza) made using the EGM-2 bullet kit (Lonza) per the manufacturers protocol.
(§3) RT-qPCR analysis for Mature, Primary and Precursor miRNAs and mRNA levels. After compound treatment for the indicated time (MDA-MB-231 48 h and HUVECs 24 h), total RNA was extracted using the Zymo Quick-RNA mini prep kit according to the manufacturers protocol. Reverse Transcription (RT) for microRNAs and pri- and pre-miR-155 were done on 200 ng of RNA using the miScript II RT kit (Qiagen) according to the manufacturer's protocol. The mRNAs were done using QScript (Quanta Bio) on 200 ng of total RNA according to the manufacturer's protocol. RT-qPCR was done as mentioned above. The obtained data was analyzed by using the ΔΔCt method as described previously. For the washout experiment, MDA-MB-231 cells were treated with 3 for 48 h. Then the media was changed with fresh growth medium without compound and the cells incubated for 12, 24 and 36 h with RNA harvested and pre-miR-155 levels analyzed as described above.
(§4) RT-qPCR analysis for Mature, Primary and Precursor miRNAs and mRNA levels part. Relative RNA expression was determined by using ΔΔCt method with 18S rRNA as an internal control. Normalized fold change was calculated with the equation as below: […]

GC paired control = assay: MST binding to GC paired control; conditions: microscale thermophoresis
Protocol: as §1

miR-155 [2] = assay: RT-qPCR of miR-155 levels in HUVECs; type: cell-based, human
Protocol: as §2, §3

pre-miR-155 [3] = assay: RT-qPCR of pre-miR-155 levels in HUVECs; type: cell-based, human
Protocol: as §2, §3

[4] = biological target: pre-miR-155's 5′GAU/3′C_A bulge; assay: Microscale thermophoresis (MST) binding to pre-miR-155 A bulge; parameters: species or system human
Protocol: as §1

[5] = system: pre-miR-155's C-bulge (5′UCG/3′A_U); assay: MST binding to pre-miR-155 C bulge; parameters: species or system human; conditions: microscale thermophoresis
Protocol: as §1

pre-miR-155 [6] = assay: Chem-CLIP and competitive Chem-CLIP of pre-miR-155 in MDA-MB-231 cells; type: cell-based, human; conditions: for enrichment of pre-miR-155 in pulled down fractions (Chem-CLIP): 1×10^−7 M (100 nM)
Protocol: Cellular Chem-CLIP and Competitive-Chem-CLIP of pre-miR-155. MDA-MB-231 cells at 80% confluency in 100 mm dish were treated with Chem-CLIP probe at the indicated concentration overnight. Then cells were washed with DPBS and harvested by scrapping. Total RNA was extracted by using the miRNeasy mini kit (Qiagen) according to the manufacture's protocol. Then, 50 g of total RNA was treated to 150 L of Dynabeads MyOne Streptavidin C1 (Invitrogen) slurry in 500 L of 1×DNA buffer (8.0 mM Na2PO4, 185 mM NaCl, pH=7.0) and shaked for 6 h. The beads then captured on a Magnetic rack and washed with DPBS for 4 times. The bound RNA was then cleaved from beads in 150 μL of 95% formamide with 10 mM EDTA at 95° C. for 30 min. Released RNA was then cleaned up by Zymo Quick-RNA MiniPrep kit per the manufacture's protocol. RT-qPCR was carried out on pre-miR-155 as previously described above by using 10 ng of input cDNA from before and after pulldown RNA samples. Enrichment of pre-miR-155 was calculated as previously reported^15. Competitive Chem-CLIP was completed by pre-treating MDA-MB-231 cells with compound B for 2 h followed by dosing of Chem-CLIP at 100 nM overnight. Sample preparation and data analysis were performed as for Chem-CLIP.

miR-155 [7] = assay: RT-qPCR of mature miR-155 levels in MDA-MB-231 cells; type: cell-based, human; conditions: 48 h
Protocol: as §2, §3, §4

pre-miR-155 [8] = assay: In vitro RNase L cleavage assay of pre-miR-155; type: biochemical, human
Protocol: pre-miR-155 was then incubated with compound 3 in vitro in an RNase L cleavage assay.
PCR amplification and transcription of DNA templates. PCR amplification of DNA templates of pre-miR-155 and mutants were performed using the pre-miR-155 forward primer containing T7 RNA polymerase promoter and a reverse primer common to both the pre-miR-155 Wild type and Mutant templates. The sequence of Oligonucleotides used in this study can be found in Table 4. PCR amplification was carried out in 350 μL of 1× PCR buffer (10 mM Tris-HCl, pH 9.0, 50 mM KCl, and 0.1% (v/v) Triton X-100), 0.33 mM dNTPs, 4.25 mM MgCl2, 2 μM of each primer(100 μM), and 1.7 μL of Taq DNA polymerase. Thermocycling was done for 35 cycles at 95° C. for 30 s, 55° C. for 30 s, and 72° C. for 60 s. PCR products were confirmed by a 2.5% Agarose Gel stained with ethidium bromide before in vitro transcription. In vitro RNA transcription for the target RNAs were carried out using house made reagents as described previously.^11

3×3 ILL = assay: 2DCS with HiT-StARTS fitness ranking of bound RNA motifs; type: binding
Protocol: 2DCS: Primary Screening. The microarrays were constructed as previously described.^10 Microarrays were by coating glass plates with 25 mL of molten 1% agarose and allowing it to set for 2 h. After setting, the plates were pinned with compound using a Biomek® NX robotic pintool, pinning 100 nL of each compound. The array was dried in a fume hood overnight and then washed in 1× FB supplemented with 0.1% (v/v) Tween-20 and then Nano pure water two times each followed by air drying on the bench top. Once dried, 200 pmol of radiolabeled 3×3 ILL was added to 0.5 mL of 1× FB and folded by heating to 95° C. for 1 min and then cooling to room temperature slowly on the benchtop. Magnesium chloride was added after cooling. Once cooled the solution was brought to a volume of 2.5 mL with 1× FB. The microarrays were pre-hybridized with 1× HB for 5 min and the excess buffer was removed by touching the edge with a Kimwipe. The arrays were then Hybridized with the RNA for 30 min, spreading the solution evenly over the surface with parafilm. After hybridization, the array was washed four times with 1× HB followed by air drying and imaging by autoradiography. Hits were identified as signals with an intensity greater than 3-fold over background radiation on the array. Positive control compounds Mitoxantrone was present on all arrays.
2DCS: tRNA Counter Screen. To remove non-specific RNA binders hits identified above were subjected to competitive screening with cold yeast tRNA. The assay was carried out as previously described.^10 Briefly, arrays were constructed on Inkjet Superfrost microscope slides (Fisher) by applying 2 mL of molten 1% agarose onto each slide and curing them for 2 h. Once cured, 200 nL of each compound was spotted onto each plate and the plates dried overnight as previously described. After drying, the slides were washed three times for 5 min each with nano pure water and dried under a stream of compressed air. The slides were then pre-hybridized with 1× HB for 5 min, and then incubated with 100 pmol of folded hot RNA and tRNA (1× relative to the total moles of compound spotted) in 0.4 mL of 1× FB for 30 min. The slides were then washed with 1× HB five times, air dried, and imaged to identify library specific binders. […]
In these equations n1 is the observed reads for all selected RNAs in the RNA-seq data; n2 is the total reads observed for the starting library; p1 is the proportion of the reads for a particular sequence to the total reads in the selected library; p2 is the proportion of the reads for a particular sequence to the total reads of the starting library. We can then use Zobs to rank each sequence, and therefore each RNA motif, by its affinity or fitness which is calculated according to equation (5) below described previously:^10 […]

Kd [4]: 490 ± 122 nM
IC50 (pre-miR-155 [6]; Homo sapiens, 6 held constant at 1×10^−7 M, read-out: IC50 of reduction of pre-miR-155 enrichment (C-Chem-CLIP)): 100 nM
SMILES: CCCCCCCCCCCc1c(CCCCCCCCCCC)[n+](-c2c(C(C)C)cccc2C(C)C)cn1-c1c(C(C)C)cccc1C(C)C [Compound 1]
binding to base paired control RNA (base paired control RNA): no binding; also recorded: Neither molecule showed significant binding
concentration of 1 giving complete ablation of cleavage by 3 (pre-miR-155 [1]; co-treated with 3 at 1×10^−7 M, mature, pre- and pri-miR-155): 1000 nM
binding to GC paired control (GC paired control): Neither compound (1 or 2) had any affinity
effect on miR-155 levels (miR-155 [2]): no effect
effect on pre-miR-155 levels (pre-miR-155 [3]): no effect
competition of cleavage by 3 (pre-miR-155 [3]; 3 at 1×10^−8 M, 1 at 1×10^−7 and 1×10^−6 M): dose dependently reduced cleavage
binding to C bulge [5]: Neither compound (1 or 2) had any affinity; also recorded: Neither molecule showed significant binding
effect on miR-155 levels / miR-155 biogenesis (miR-155 [7]): no effect; also recorded: unable to inhibit

Kd [4]: 552 ± 120 nM
SMILES: CCCNC(=O)CCc1c(C)n(-c2c(C(C)C)cccc2C(C)C)c[n+]1-c1c(C(C)C)cccc1C(C)C [Compound 2]
binding to base paired control RNA (base paired control RNA): no affinity; also recorded: ablated binding; also recorded: Neither molecule showed significant binding
effect on pre-miR-155 levels (pre-miR-155 [1]): no effect
binding to GC paired control (GC paired control): Neither compound (1 or 2) had any affinity
binding to C bulge [5]: Neither compound (1 or 2) had any affinity; also recorded: Neither molecule showed significant binding
effect on miR-155 levels / miR-155 biogenesis (miR-155 [7]): no effect

SMILES: CCOC(=O)C1=C(Nc2ccccc2)S/C(=C\c2ccc(OCCOCCOCCOCCNC(C)=O)c(O)c2)C1=O [Compound 4]
cleavage of pre-miR-155 (pre-miR-155 [8]): no significant cleavage; also recorded: unable to cleave
effect on miR-155 levels / miR-155 biogenesis (miR-155 [7]): no effect; also recorded: does not affect

SMILES: Cc1c(CCC(=O)NCCCC[C@H](NC(=O)CCCc2ccc(N(CCCl)CCCl)cc2)C(=O)NCCNC(=O)CCCCC2SCC3NC(=O)NC32)[n+](-c2c(C(C)C)cccc2C(C)C)cn1-c1c(C(C)C)cccc1C(C)C (stereo partly drawn) [Compound 6]
enrichment of pre-miR-155 in pulled down fractions (Chem-CLIP) (pre-miR-155 [6]): 4 fold and 7 fold

SMILES: CC(=O)NCCCC[C@H](NC(=O)CCCc1ccc(N(CCCl)CCCl)cc1)C(=O)NCCNC(=O)CCCCC1SCC2NC(=O)NC21 (stereo partly drawn) [Compound 7]
enrichment of pre-miR-155 in pulled down fractions (Chem-CLIP) (pre-miR-155 [6]): no enrichment; also recorded: unable to pull down

SMILES: CCCCCCCCCCCc1c(CCCCCCCCCCC)[n+](C)c(CCCO)n1C [Compound C7]
Fitness Score of the next motif (3×3 ILL): 46%
fitness score of highest affinity interaction, alternating (AU)(UA) pairs (3×3 ILL): 100%

SMILES: Cc1cc(C)c(-n2c[n+](-c3c(C)cc(C)cc3C)c3c2C[C@@]2(C)[C@@H](CC[C@@H]4[C@@H]2CC[C@]2(C)[C@@H]([C@H](C)CCCC(C)C)CC[C@@H]42)C3)c(C)c1 [Compound C11]
Fitness Score of the next motif (3×3 ILL): 56%
fitness score of highest affinity interaction, alternating (AU)(UA) pairs (3×3 ILL): 100%
